Measured values taken from ChEMBL document CHEMBL5537157, “Selective Antitumor Effect and Lower Toxicity of Mitochondrion-Targeting Derivatization of Triptolide” (J Med Chem, 2024).
Calls of active or inactive are those of the source. The rule behind the calls is not given here.

Legend:
[1] = Cytotoxicity against human BEAS-2B cells assessed as inhibition of cell viability incubated for 48 hrs by MTT assay; assay type: toxicity, cell-based
A549 [2] = test: Cytotoxicity against human A549 cells assessed as inhibition of cell viability incubated for 48 hrs by MTT assay; assay type: functional, cell-based; conditions: A549, 48 h
NCI-H460 [3] = test: Cytotoxicity against human NCI-H460 cells assessed as inhibition of cell viability incubated for 48 hrs by MTT assay; assay type: functional, cell-based; conditions: NCI-H460, 48 h
NCI-H1975 [4] = test: Inhibition of cell viability in human NCI-H1975 cells assessed as cell index at 270 nM measured after 48 hrs by real-time cell analysis; assay type: functional
NCI-H1975 [5] = test: Induction of apoptosis in human NCI-H1975 cells assessed as nuclear shrinkage at 400 nM incubated for 24 hrs by DAPI staining based analysis; assay type: functional, cell-based
BEAS-2B [6] = test: Induction of apoptosis in human BEAS-2B cells assessed as morphological change in nucleus at 50 to 400 nM incubated for 24 hrs by DAPI staining based analysis; assay type: toxicity, cell-based; conditions: 0.4 µM, dose 50-400 nM
NCI-H1975 [7] = test: Induction of early apoptosis in human NCI-H1975 cells at 50 to 400 nM incubated for 24 hrs by Annexin V-FITC/PI staining based flow cytometry; assay type: functional, cell-based; conditions: dose 50-400 nM
NCI-H1975 [8] = test: Induction of late apoptosis in human NCI-H1975 cells at 50 to 400 nM incubated for 24 hrs by Annexin V-FITC/PI staining based flow cytometry; assay type: functional, cell-based; conditions: dose 50-400 nM
BEAS-2B [9] = test: Induction of apoptosis in human BEAS-2B cells at 50 to 400 nM incubated for 24 hrs by Annexin V-FITC/PI staining based flow cytometry; assay type: toxicity, cell-based; conditions: 0.4 µM, dose 50-400 nM
NCI-H1975 [10] = test: Induction of apoptosis in human NCI-H1975 cells at 50 to 400 nM incubated for 24 hrs by Annexin V-FITC/PI staining based flow cytometry; assay type: functional, cell-based; conditions: dose 50-400 nM
NCI-H1975 [11] = test: Induction of ROS generation in human NCI-H1975 cells incubated for 24 hrs by DCFH-DA probe based analysis; assay type: functional, cell-based; conditions: dose 0.05-0.4 µM
NCI-H1975 [12] = test: Inhibition of mitochondrial membrane potential in human NCI-H1975 cells at 200 nM incubated for 24 hrs by JC-1 staining based flow cytometry; assay type: functional, cell-based
BEAS-2B [13] = test: Inhibition of mitochondrial membrane potential in human BEAS-2B cells at 200 nM incubated for 24 hrs by JC-1 staining based flow cytometry; assay type: toxicity, cell-based; conditions: 0.2 µM
[14] = Teratogenic toxicity in zebrafish AB zygotes at 2 to 4 uM treated at 6 hrs post-fertilization measured at 24 to 72 hrs post-fertilization; design: species or system Danio rerio; conditions: in vivo, dose lower 2 µM, time lower 18 hrs, dose upper 4 µM, time upper 66 hrs
[15] = Developmental toxicity in zebrafish AB zygotes assessed as embryo malformation at 2 to 4 uM treated at 6 hrs post-fertilization measured at 24 to 72 hrs post-fertilization; design: species or system Danio rerio; conditions: in vivo, dose lower 2 µM, time lower 18 hrs, dose upper 4 µM, time upper 66 hrs
[16] = Renal toxicity in zebrafish assessed as yolk sac absorption at 0.5 to 4 uM treated at 3 hrs post-fertilization measured at 48 hrs post-compound treatment by FITC staining based microscopy; design: species or system Danio rerio; conditions: in vivo, dose 0.5-4 µM
[17] = Renal toxicity in zebrafish assessed as increase in TNF-alpha expression at 2 uM treated for 48 hrs by RT-qPCR analysis; design: species or system Danio rerio; conditions: in vivo
[18] = Toxicity in zebrafish embryo assessed as liver development at 2 uM with replacement of new growth solution daily by fluorescence microscopy (reference value: 100.00 +/- 8.64 %); assay type: tissue-based, Danio rerio; conditions: in vivo
[19] = Toxicity in zebrafish embryo assessed as damage effect in liver development at 2 uM with replacement of new growth solution daily by fluorescence microscopy relative to control; assay type: tissue-based, Danio rerio; conditions: in vivo
[20] = Toxicity in zebrafish embryo assessed as liver function at 1 uM with replacement of new growth solution daily by fluorescence microscopy (reference value: 100 +/- 8.89 %); assay type: tissue-based, Danio rerio; conditions: in vivo
[21] = Toxicity in zebrafish embryo assessed as liver function at 2 uM with replacement of new growth solution daily by fluorescence microscopy (reference value: 100 +/- 8.89 %); assay type: tissue-based, Danio rerio; conditions: in vivo
HepG2 [22] = test: Cytotoxicity against human HepG2 cells assessed as cell growth inhibition incubated for 48 hrs by MTT assay; assay type: functional, cell-based; conditions: dose 4.5-10 nM
HepG2 [23] = test: Cytotoxicity against human HepG2 cells assessed as cell growth inhibition at 4.5 to 10 nM incubated for 48 hrs by MTT assay relative to control; assay type: functional; conditions: dose 4.5-10 nM
[24] = Cytotoxicity against human HUVEC cells assessed as cell growth inhibition at 4.5 to 10 nM incubated for 48 hrs by MTT assay relative to control; assay type: toxicity, cell-based; conditions: dose 4.5-10 nM, read-out: Imax
MCF7 = test: Cytotoxicity against human MCF7 cells assessed as cell growth inhibition at 4.5 to 10 nM incubated for 48 hrs by MTT assay relative to control; assay type: functional; conditions: dose 4.5-10 nM
NCI-H1975 [25] = test: Cytotoxicity against human NCI-H1975 cells assessed as cell growth inhibition at 4.5 to 10 nM incubated for 48 hrs by MTT assay relative to control; assay type: functional; conditions: dose 4.5-10 nM
NCI-H1975 [26] = test: Cytotoxicity against human NCI-H1975 cells assessed as cell growth inhibition incubated for 48 hrs by MTT assay; assay type: functional, cell-based
NCI-H460 [27] = test: Cytotoxicity against human NCI-H460 cells assessed as cell growth inhibition incubated for 48 hrs by MTT assay; assay type: functional, cell-based
BEAS-2B [28] = test: Cytotoxicity against human BEAS-2B cells assessed as cell growth inhibition incubated for 48 hrs by MTT assay; assay type: toxicity, cell-based
NCI-H1975 [29] = test: Cytotoxicity against human NCI-H1975 cells assessed as cell growth inhibition at 123 nM by MTT assay; assay type: functional, cell-based; conditions: time 24-70 hrs, TDE = time-dependent effect
A549 [30] = test: Cytotoxicity against human A549 cells assessed as cell growth inhibition incubated for 48 hrs by MTT assay; assay type: functional, cell-based
NCI-H1975 [31] = test: Induction of apoptosis in human NCI-H1975 cells at 50 to 1600 nM incubated for 24 hrs by Annexin V-FITC/PI staining based flow cytometry; assay type: functional, cell-based; conditions: dose 50-1600 nM
Danio rerio = species: Danio rerio; test: Induction of ROS production in zebrafish at 1 to 2 uM measured after 48 hrs by fluorescence microscopy; assay type: functional, organism-based; conditions: dose 1-2 µM
NCI-H1975 [32] = test: Inhibition of cell proliferation in human NCI-H1975 cells xenografted in zebrafish at 1 uM measured after 48 hrs by confocal microscopy; assay type: functional, cell-based
[33] = Toxicity in zebrafish xenografted with human NCI-H1975 cells assessed as body deformity at 1 uM; design: species or system Danio rerio
[34] = Developmental toxicity in zebrafish AB zygotes assessed as lethal effect at 2 to 4 uM treated at 6 hrs post-fertilization measured at 72 hrs post-fertilization; design: species or system Danio rerio; conditions: in vivo, 66 h, dose 2-4 µM
[35] = Teratogenic toxicity in zebrafish AB zygotes at 0.5 to 2 uM treated at 6 hrs post-fertilization measured at 24 to 72 hrs post-fertilization; design: species or system Danio rerio; conditions: in vivo, dose lower 0.5 µM, time lower 18 hrs, dose upper 2 µM, time upper 66 hrs
[36] = Developmental toxicity in zebrafish AB zygotes assessed as embryo malformation at 0.5 to 2 uM treated at 6 hrs post-fertilization measured at 24 to 72 hrs post-fertilization; design: species or system Danio rerio; conditions: in vivo, dose lower 0.5 µM, time lower 18 hrs, dose upper 2 µM, time upper 66 hrs
[37] = Renal toxicity in fluorescent transgenic zebrafish at 0.5 to 2 uM treated for 48 hrs by fluorescence microscopy; design: species or system Danio rerio; conditions: in vivo, dose 0.5-2 µM

For CC(C)[C@]12O[C@H]1[C@@H]1O[C@]13[C@]1(O[C@H]1C[C@H]1C4=C(CC[C@@]13C)C(=O)OC4)[C@@H]2OC(=O)CCCCCCCC[n+]1ccc(/C=C/c2c[nH]c3ccccc23)cc1.[Br-], the IC50 at 48 h [1] was 19.2 µM, the IC50 (A549 [2]) was 46.1 µM and the IC50 (NCI-H460 [3]) was 4.78 µM. The Activity_index (NCI-H1975 [4]) was 0, the Activity (NCI-H1975 [5]) was “Active” and the Activity (BEAS-2B [6]) was “Non-Toxic”. For the same compound, the Activity (NCI-H1975 [7]) was “Active”, the Activity (NCI-H1975 [8]) was “Active” and the Activity (BEAS-2B [9]) was “Non-Toxic”. For the same compound, the Activity (NCI-H1975 [10]) was “Active”, the Activity (NCI-H1975 [11]) was “Dose-Dependent Effect” and the inhibition (NCI-H1975 [12]) was “Active”. For the same compound, the Activity (BEAS-2B [13]) was “Non-Toxic”, the Activity [14] was “Toxic” and the Activity [15] was “Toxic”. For the same compound, the Activity [16] was “Non-Toxic”, the Activity [17] was “Toxic” and the Activity [18] was 41.79%. The Activity [19] was 58.21%, the Activity [20] was 27.18% and the Activity [21] was 20.04%.

With CC(C)[C@]12O[C@H]1[C@@H]1O[C@@]13[C@@]1(C)CCC4=C(COC4=O)[C@@H]1C[C@@H]1O[C@@]13C2=O [TRIPTONIDE] the inhibition (HepG2 [22]) was “Active”, the “inhibition (INH)” value (HepG2 [23]) was 80% and the Emax at 48 h [24] was roughly 60%. The Imax (MCF7) was roughly 40%, the Imax (NCI-H1975 [25]) was roughly 40% and the inhibition (NCI-H1975 [26]) was “Dose-Dependent Effect”. For the same compound, the inhibition (NCI-H460 [27]) was “Dose-Dependent Effect”, the “inhibition (INH)” value (BEAS-2B [28]) was “Dose-Dependent Effect” and the inhibition (NCI-H1975 [29]) was “Tde”. The inhibition (A549 [30]) was “Dose-Dependent Effect”, the Activity (NCI-H1975 [31]) was “Active” and the Activity (Danio rerio) was “Active”. For the same compound, the inhibition (NCI-H1975 [32]) was “Active”, the Activity [33] was “Toxic” and the Activity [34] was “Toxic”. The Activity [35] was “Toxic”, the Activity [36] was “Toxic” and the Activity [37] was “Toxic”.
